Test results published in the NIST ThermoML archive (doi:10.1016/j.jct.2014.07.018).

Test: molar heat capacity at constant pressure
Details: 101.33 kPa, Vacuum adiabatic calorimetry

CCCCn1cc[n+](C)c1.[I-] [1-butyl-3-methylimidazolium iodide]
molar heat capacity at constant pressure [J/K/mol]
Details	Crystal	Glass
79.03 K	–	108.5
80 K	101	109.4
80.72 K	–	110.2
80.99 K	102	–
81.32 K	102.2	–
81.39 K	–	110.6
82.53 K	–	111.7
82.87 K	103.5	–
83.68 K	104.1	–
83.75 K	–	112.7
84.35 K	–	113.3
84.75 K	105	–
86.18 K	–	114.8
86.65 K	106.5	–
88.03 K	–	116.3
88.56 K	108	–
89.88 K	–	117.8
90 K	109.2	117.9
90.48 K	109.5	–
91.74 K	–	119.3
92.41 K	110.9	–
93.62 K	–	120.8
94.34 K	112.5	–
95.5 K	–	122.3
96.29 K	113.9	–
97.39 K	–	123.7
98.25 K	115.3	–
99.29 K	–	125.2
100 K	116.6	125.7
100.21 K	116.7	–
101.2 K	–	126.6
102.18 K	118.2	–
103.12 K	–	128
104.16 K	119.5	–
105.04 K	–	129.4
106.14 K	120.9	–
106.97 K	–	130.8
107.31 K	121.7	–
108.13 K	122.3	–
108.91 K	–	132.2
109.45 K	123.1	–
110 K	123.5	132.9
110.13 K	123.6	–
110.85 K	–	133.5
111.45 K	124.4	–
112.13 K	124.9	–
112.8 K	–	134.9
113.46 K	125.7	–
114.14 K	126.3	–
114.75 K	–	136.2
115.47 K	127.1	–
116.16 K	127.5	–
116.71 K	–	137.6
117.49 K	128.4	–
118.17 K	128.8	–
118.68 K	–	138.9
119.51 K	129.7	–
120 K	130	139.8
120.2 K	130.1	–
120.64 K	–	140.2
121.54 K	130.9	–
122.22 K	131.4	–
122.62 K	–	141.5
123.57 K	132.2	–
124.25 K	132.7	–
124.59 K	–	142.8
125.6 K	133.5	–
126.29 K	133.9	–
126.57 K	–	144.1
127.64 K	134.7	–
128.33 K	135.1	–
128.55 K	–	145.4
129.68 K	135.9	–
130 K	136.1	146.4
130.37 K	136.4	–
130.54 K	–	146.7
131.72 K	137.2	–
132.41 K	137.6	–
132.53 K	–	148
133.76 K	138.4	–
134.46 K	138.8	–
134.52 K	–	149.3
135.81 K	139.6	–
136.51 K	140.1	150.6
137.87 K	140.8	–
138.51 K	–	151.8
138.56 K	141.3	–
139.92 K	142.1	–
140 K	142.1	152.8
140.51 K	–	153.1
140.62 K	142.5	–
141.98 K	143.3	–
142.51 K	–	154.4
142.68 K	143.7	–
144.04 K	144.5	–
144.51 K	–	155.7
144.74 K	144.9	–
146.1 K	145.7	–
146.51 K	–	157
146.8 K	146.1	–
148.16 K	146.9	–
148.52 K	–	158.3
148.86 K	147.3	–
150 K	147.9	159.3
150.22 K	148.1	–
150.52 K	–	159.6
150.92 K	148.5	–
152.28 K	149.3	–
152.53 K	–	160.9
152.98 K	149.7	–
154.35 K	150.5	–
154.54 K	–	162.2
155.05 K	150.8	–
156.41 K	151.6	–
156.54 K	–	163.5
157.11 K	152.1	–
158.48 K	152.8	–
158.55 K	–	164.8
159.18 K	153.2	–
160 K	153.7	165.7
160.54 K	154	–
160.56 K	–	166.1
161.24 K	154.4	–
162.57 K	–	167.4
162.61 K	155.2	–
163.31 K	155.6	–
164.58 K	–	168.7
164.68 K	156.4	–
165.38 K	156.8	–
166.59 K	–	170
166.74 K	157.5	–
167.44 K	158	–
168.59 K	–	171.4
